{
  "source": "ChEMBL document CHEMBL1145260",
  "about": "“Design, synthesis and structure-activity relationships of 6-O-arylpropargyl diazalides with potent activity against multidrug-resistant Streptococcus pneumoniae” (2005)",
  "assay_type_in_all_cases": "functional",
  "key": {"Streptococcus pneumoniae [1]": {"tested_on": "Streptococcus pneumoniae", "experiment": "Minimum inhibitory concentration against Streptococcus pneumoniae 5649 strain"}, "Staphylococcus aureus [2]": {"tested_on": "Staphylococcus aureus", "experiment": "Minimum inhibitory concentration against Staphylococcus aureus 6538P (erythromycin-susceptible strain)"}, "Streptococcus pneumoniae [3]": {"tested_on": "Streptococcus pneumoniae", "experiment": "Minimum inhibitory concentration against Streptococcus pneumoniae ATCC 6303 (erythromycin-susceptible strain)"}, "Streptococcus pyogenes [4]": {"tested_on": "Streptococcus pyogenes", "experiment": "Minimum inhibitory concentration against Streptococcus pyogenes EES61 (erythromycin-susceptible strain)"}, "Streptococcus pneumoniae [5]": {"tested_on": "Streptococcus pneumoniae", "experiment": "Minimum inhibitory concentration against Streptococcus pneumoniae 5979 strain"}, "Streptococcus pyogenes [6]": {"tested_on": "Streptococcus pyogenes", "experiment": "Minimum inhibitory concentration against Streptococcus pyogenes 930 (erythromycin-resistant strain)"}, "Haemophilus influenzae": {"tested_on": "Haemophilus influenzae", "experiment": "Minimum inhibitory concentration against Haemophilus influenzae GYR1435 (erythromycin susceptible strain)"}, "Staphylococcus aureus [7]": {"tested_on": "Staphylococcus aureus", "experiment": "Minimum inhibitory concentration against Staphylococcus aureus A5177 (erythromycin-resistant strain"}},
  "data": [
    {"molecule": "CC[C@H]1OC(=O)[C@H](C)C(=O)[C@H](C)[C@@H](O[C@@H]2O[C@H](C)C[C@H](N(C)C)[C@H]2O)[C@@](C)(OCC#Cc2ccccc2)C[C@@H](C)C2=NCCN3C(=O)O[C@@]1(C)[C@H]3[C@H]2C", "values": [
      {"measurement": "MIC", "setting": "Streptococcus pneumoniae [1]", "value": 0.5, "unit": "µg/mL"},
      {"measurement": "MIC", "setting": "Staphylococcus aureus [2]", "value": 0.2, "unit": "µg/mL"},
      {"measurement": "MIC", "setting": "Streptococcus pneumoniae [3]", "value": 0.03, "unit": "µg/mL"},
      {"measurement": "MIC", "setting": "Streptococcus pyogenes [4]", "value": 0.06, "unit": "µg/mL"},
      {"measurement": "MIC", "setting": "Streptococcus pneumoniae [5]", "value": "> 128", "unit": "µg/mL"},
      {"measurement": "MIC", "setting": "Streptococcus pyogenes [6]", "value": 64, "unit": "µg/mL"},
      {"measurement": "MIC", "setting": "Haemophilus influenzae", "value": 8, "unit": "µg/mL"},
      {"measurement": "MIC", "setting": "Staphylococcus aureus [7]", "value": 0.2, "unit": "µg/mL"}
    ]},
    {"molecule": "CC[C@H]1OC(=O)[C@H](C)C(=O)[C@H](C)[C@@H](O[C@@H]2O[C@H](C)C[C@H](N(C)C)[C@H]2O)[C@@](C)(OCC#Cc2ccc(-c3ccccn3)cc2)C[C@@H](C)C2=NCCN3C(=O)O[C@@]1(C)[C@H]3[C@H]2C", "values": [
      {"measurement": "MIC", "setting": "Streptococcus pneumoniae [1]", "value": "≤ 0.008", "unit": "µg/mL"},
      {"measurement": "MIC", "setting": "Staphylococcus aureus [2]", "value": 0.25, "unit": "µg/mL"},
      {"measurement": "MIC", "setting": "Streptococcus pneumoniae [3]", "value": "≤ 0.008", "unit": "µg/mL"},
      {"measurement": "MIC", "setting": "Streptococcus pyogenes [4]", "value": "≤ 0.008", "unit": "µg/mL"},
      {"measurement": "MIC", "setting": "Streptococcus pneumoniae [5]", "value": "≤ 0.008", "unit": "µg/mL"},
      {"measurement": "MIC", "setting": "Streptococcus pyogenes [6]", "value": 8, "unit": "µg/mL"},
      {"measurement": "MIC", "setting": "Haemophilus influenzae", "value": 1, "unit": "µg/mL"},
      {"measurement": "MIC", "setting": "Staphylococcus aureus [7]", "value": 0.03, "unit": "µg/mL"}
    ]},
    {"molecule": "CC[C@H]1OC(=O)[C@H](C)C(=O)[C@H](C)[C@@H](O[C@@H]2O[C@H](C)C[C@H](N(C)C)[C@H]2O)[C@@](C)(OC)C[C@@H](C)C2=NCCN3C(=O)O[C@@]1(C)[C@H]3[C@H]2C", "values": [
      {"measurement": "MIC", "setting": "Streptococcus pneumoniae [1]", "value": 1, "unit": "µg/mL"},
      {"measurement": "MIC", "setting": "Staphylococcus aureus [2]", "value": 0.1, "unit": "µg/mL"},
      {"measurement": "MIC", "setting": "Streptococcus pneumoniae [3]", "value": 0.06, "unit": "µg/mL"},
      {"measurement": "MIC", "setting": "Streptococcus pyogenes [4]", "value": 0.06, "unit": "µg/mL"},
      {"measurement": "MIC", "setting": "Streptococcus pneumoniae [5]", "value": "> 128", "unit": "µg/mL"},
      {"measurement": "MIC", "setting": "Streptococcus pyogenes [6]", "value": "> 128", "unit": "µg/mL"},
      {"measurement": "MIC", "setting": "Haemophilus influenzae", "value": 4, "unit": "µg/mL"},
      {"measurement": "MIC", "setting": "Staphylococcus aureus [7]", "value": 0.1, "unit": "µg/mL"}
    ]},
    {"molecule": "CC[C@H]1OC(=O)[C@H](C)C(=O)[C@H](C)[C@@H](O[C@@H]2O[C@H](C)C[C@H](N(C)C)[C@H]2O)[C@@](C)(OCC#Cc2ccc(-c3nnn(C)n3)s2)C[C@@H](C)C2=NCCN3C(=O)O[C@@]1(C)[C@H]3[C@H]2C", "values": [
      {"measurement": "MIC", "setting": "Streptococcus pneumoniae [1]", "value": 0.06, "unit": "µg/mL"},
      {"measurement": "MIC", "setting": "Staphylococcus aureus [2]", "value": 0.5, "unit": "µg/mL"},
      {"measurement": "MIC", "setting": "Streptococcus pneumoniae [3]", "value": "≤ 0.008", "unit": "µg/mL"},
      {"measurement": "MIC", "setting": "Streptococcus pyogenes [4]", "value": "≤ 0.008", "unit": "µg/mL"},
      {"measurement": "MIC", "setting": "Streptococcus pneumoniae [5]", "value": 0.003, "unit": "µg/mL"},
      {"measurement": "MIC", "setting": "Streptococcus pyogenes [6]", "value": 2, "unit": "µg/mL"},
      {"measurement": "MIC", "setting": "Haemophilus influenzae", "value": 4, "unit": "µg/mL"},
      {"measurement": "MIC", "setting": "Staphylococcus aureus [7]", "value": 0.125, "unit": "µg/mL"}
    ]},
    {"molecule": "CC[C@H]1OC(=O)[C@H](C)C(=O)[C@H](C)[C@@H](O[C@@H]2O[C@H](C)C[C@H](N(C)C)[C@H]2O)[C@@](C)(OCC#CCCc2ccc(-c3ccccn3)cc2)C[C@@H](C)C2=NCCN3C(=O)O[C@@]1(C)[C@H]3[C@H]2C", "values": [
      {"measurement": "MIC", "setting": "Streptococcus pneumoniae [1]", "value": 0.06, "unit": "µg/mL"},
      {"measurement": "MIC", "setting": "Staphylococcus aureus [2]", "value": 0.25, "unit": "µg/mL"},
      {"measurement": "MIC", "setting": "Streptococcus pneumoniae [3]", "value": "≤ 0.008", "unit": "µg/mL"},
      {"measurement": "MIC", "setting": "Streptococcus pyogenes [4]", "value": "≤ 0.008", "unit": "µg/mL"},
      {"measurement": "MIC", "setting": "Streptococcus pneumoniae [5]", "value": 0.03, "unit": "µg/mL"},
      {"measurement": "MIC", "setting": "Streptococcus pyogenes [6]", "value": 0.5, "unit": "µg/mL"},
      {"measurement": "MIC", "setting": "Haemophilus influenzae", "value": 2, "unit": "µg/mL"},
      {"measurement": "MIC", "setting": "Staphylococcus aureus [7]", "value": 0.25, "unit": "µg/mL"}
    ]},
    {"molecule": "CC[C@H]1OC(=O)[C@H](C)C(=O)[C@H](C)[C@@H](O[C@@H]2O[C@H](C)C[C@H](N(C)C)[C@H]2O)[C@@](C)(OCC#Cc2cnc3ccccc3c2)C[C@@H](C)C2=NCCN3C(=O)O[C@@]1(C)[C@H]3[C@H]2C", "values": [
      {"measurement": "MIC", "setting": "Streptococcus pneumoniae [1]", "value": 0.25, "unit": "µg/mL"},
      {"measurement": "MIC", "setting": "Staphylococcus aureus [2]", "value": 0.1, "unit": "µg/mL"},
      {"measurement": "MIC", "setting": "Streptococcus pneumoniae [3]", "value": "≤ 0.004", "unit": "µg/mL"},
      {"measurement": "MIC", "setting": "Streptococcus pyogenes [4]", "value": 0.015, "unit": "µg/mL"},
      {"measurement": "MIC", "setting": "Streptococcus pneumoniae [5]", "value": 2, "unit": "µg/mL"},
      {"measurement": "MIC", "setting": "Streptococcus pyogenes [6]", "value": 1, "unit": "µg/mL"},
      {"measurement": "MIC", "setting": "Haemophilus influenzae", "value": 2, "unit": "µg/mL"},
      {"measurement": "MIC", "setting": "Staphylococcus aureus [7]", "value": 0.1, "unit": "µg/mL"}
    ]},
    {"molecule": "CC[C@H]1OC(=O)[C@H](C)C(=O)[C@H](C)[C@@H](O[C@@H]2O[C@H](C)C[C@H](N(C)C)[C@H]2O)[C@](C)(OCC=Cc2cnc3ccccc3c2)C[C@@H](C)C(=O)[C@H](C)[C@H]2NC(=O)O[C@@]21C", "note": "[CETHROMYCIN]", "values": [
      {"measurement": "MIC", "setting": "Streptococcus pneumoniae [1]", "value": 0.25, "unit": "µg/mL"},
      {"measurement": "MIC", "setting": "Staphylococcus aureus [2]", "value": 0.05, "unit": "µg/mL"},
      {"measurement": "MIC", "setting": "Streptococcus pneumoniae [3]", "value": 0.03, "unit": "µg/mL"},
      {"measurement": "MIC", "setting": "Streptococcus pyogenes [4]", "value": "< 0.005", "unit": "µg/mL"},
      {"measurement": "MIC", "setting": "Streptococcus pneumoniae [5]", "value": 16, "unit": "µg/mL"},
      {"measurement": "MIC", "setting": "Streptococcus pyogenes [6]", "value": 1, "unit": "µg/mL"},
      {"measurement": "MIC", "setting": "Haemophilus influenzae", "value": 2, "unit": "µg/mL"},
      {"measurement": "MIC", "setting": "Staphylococcus aureus [7]", "value": 0.05, "unit": "µg/mL"}
    ]},
    {"molecule": "CC[C@H]1OC(=O)[C@H](C)[C@@H](O[C@H]2C[C@@](C)(OC)[C@@H](O)[C@H](C)O2)[C@H](C)[C@@H](O[C@@H]2O[C@H](C)C[C@H](N(C)C)[C@H]2O)[C@](C)(O)C[C@@H](C)C(=O)[C@H](C)[C@@H](O)[C@]1(C)O", "note": "[ERYTHROMYCIN]", "values": [
      {"measurement": "MIC", "setting": "Streptococcus pneumoniae [1]", "value": 16, "unit": "µg/mL"},
      {"measurement": "MIC", "setting": "Staphylococcus aureus [2]", "value": 0.39, "unit": "µg/mL"},
      {"measurement": "MIC", "setting": "Streptococcus pneumoniae [3]", "value": 0.06, "unit": "µg/mL"},
      {"measurement": "MIC", "setting": "Streptococcus pyogenes [4]", "value": 0.03, "unit": "µg/mL"},
      {"measurement": "MIC", "setting": "Streptococcus pneumoniae [5]", "value": "> 128", "unit": "µg/mL"},
      {"measurement": "MIC", "setting": "Streptococcus pyogenes [6]", "value": "> 128", "unit": "µg/mL"},
      {"measurement": "MIC", "setting": "Haemophilus influenzae", "value": 8, "unit": "µg/mL"},
      {"measurement": "MIC", "setting": "Staphylococcus aureus [7]", "value": 6.2, "unit": "µg/mL"}
    ]}
  ]
}
